{
  "source": "patent US11980625B2",
  "about": "“Ganaxolone for use in treating tuberous sclerosis complex” (Marinus Pharmaceuticals, Inc., priority 2019, dated 2024)",
  "key": {"Solubility of ganaxolone": {"assay": "Solubility of ganaxolone", "format": "physicochemical", "experimental": "Ganaxolone is insoluble in water. Its solubilities in 95% alcohol, propylene glycol and polyethylene glycol are 13 mg/mL, 3.5 mg/mL and 3.1 mg/mL, respectively.\nThe pregnenolone neurosteroid (e.g., ganaxolone) formulations suitable may also be administered parenterally. In such embodiments, the formulations are suitable for intramuscular, subcutaneous, or intravenous injection may comprise physiologically acceptable sterile aqueous or non-aqueous solutions, dispersions, suspensions or emulsions, and sterile powders for reconstitution into sterile injectable solutions or dispersions. Examples of suitable aqueous and non-aqueous carriers, diluents, solvents, or vehicles including water, ethanol, polyols (propylene glycol, polyethylene-glycol, glycerol, cremophor and the like), suitable mixtures thereof, vegetable oils (such as olive oil) and injectable organic esters such as ethyl oleate. Additionally, Ganaxolone can be dissolved at concentrations of >1 mg/ml using water soluble beta cyclodextrins (e.g. beta-sulfobutyl-cyclodextrin and 2-hydroxypropylbetacyclodextrin). A particularly suitable cyclodextrin is a substituted-β-cyclodextrin is Captisol®. Proper fluidity can be maintained, for example, by the use of a coating such as lecithin, by the maintenance of the required particle size in the case of dispersions, and by the use of surfactants. […]"}, "dogs": {"system": "dogs", "assay": "Cardiovascular parameters in dogs after a single dose", "format": "in vivo", "details": "single dose of up to 15 mg/kg"}, "rats [1]": {"system": "rats", "assay": "6-month study in rats", "format": "in vivo", "details": "more pronounced in females, correlated to increased liver weights and hepatocellular hypertrophy"}, "rats or mice": {"system": "rats or mice", "assay": "Reproductive and developmental toxicity", "format": "in vivo"}, "[2]": {"system": "individuals with a confirmed PCDH19 mutation (PCDH19-related epilepsy)", "assay": "Open-label study in individuals with PCDH19 mutation, seizure frequency and Allo-S biomarker", "format": "in vivo, human", "experimental": "FIG. 1 depicts baseline endogenous allopregnenolone-sulfate (“Allo-S”) levels in female patients with PCDH19-related epilepsy stratified by responder vs. non-responder. When stratifying patients with allopregnanolone-sulfate (Allo-S) levels <2.5 ng mL-1, a 50% median reduction in seizure frequency (n=7) compared to baseline was observed. This analysis was conducted retrospectively in a small, open label cohort.\nIndividuals (n=11) with a confirmed PCDH19 mutation and minimum seizure burden were enrolled between May 2015 and November 2015 at six centers in the U.S. and Italy. Seizure frequency change (%) was assessed as the primary endpoint and a responder was defined as having a 25% or greater decrease in seizure rate. Plasma neurosteroid levels were quantified using a previously published GC/MS method (doi:10.1016/50028-3908(99)00149-5). In two cases, baseline neurosteroid levels were not measured."}, "[3]": {"system": "patients with CDKL5 deficiency disorder (CDD)", "assay": "Preliminary PK/PD analysis of phase 3 trial in CDKL5 deficiency disorder (CDD)", "format": "in vivo, human", "excerpt": "Global, randomized, double-blind, placebo-controlled phase 3 clinical trial to assess the safety and efficacy of adjunctive ganaxolone for the treatment of seizures associated with CDD. Patients aged 2 to 21 years with a pathogenic or likely pathogenic mutation of the CDKL5 gene, neurodevelopmental impairment, and seizures refractory to treatment with at least 2 prior antiseizure medications who experienced at least 16 seizures per 28 days during the 2 months prior to screening were eligible to enroll. Study consisted of a 6-week baseline followed by a 17-week double-blind phase (ganaxolone or placebo, 1:1). The dose of ganaxolone 50 mg/mL suspension was titrated over 4 weeks to 63 mg/kg/day (21 mg/kg TID), not to exceed 1800 mg/d (600 mg TID), or to the maximum tolerated dose. Blood draws for PK analysis were scheduled to occur at visit 3 (week 5), visit 4 (week 9), and visit 5 (week 17).\nMean ganaxolone concentration was calculated for each subject using available results from up to three laboratory determinations during the double-blind phase. Linear regression was conducted using arithmetic- and natural logarithm-transformed percent reduction in major motor seizures (loge [percent reduction+100]) as dependent variable and natural logarithm-transformed mean ganaxolone concentration as the single explanatory variable. Regression diagnostics included examination of residual and normal probability plots and determination of outliers and influential values. Cases with standardized residuals >2 or <−2 were excluded from the model and the regression was repeated.\nThe resulting sample was utilized in determination of a Pearson correlation coefficient (using log-transformed values). Additionally, percent seizure reduction was compared in three tertiles representing low (N=13), medium (N=13) and high (N=12) mean per subject ganaxolone concentrations using a Kruskal-Wallis test."}, "rats [4]": {"system": "rats", "assay": "Intravenous ganaxolone in rats: EEG and status epilepticus models", "format": "in vivo"}, "[5]": {"assay": "Clinical interaction studies (grapefruit, enzyme-inducing AEDs)", "format": "in vivo, human"}, "[6]": {"system": "BTBR mouse model of autism", "details": "in vivo; cited from earlier work"}, "[7]": {"system": "children and adolescents with fragile X syndrome (FXS)", "details": "b131: in those with higher baseline anxiety; cited from earlier work"}, "[8]": {"details": "human plasma following oral administration; cited from earlier work"}, "CYP3A4": {"molecular_target": "CYP3A4 (Homo sapiens, UniProt P08684)", "sequence (P08684 whole entry)": "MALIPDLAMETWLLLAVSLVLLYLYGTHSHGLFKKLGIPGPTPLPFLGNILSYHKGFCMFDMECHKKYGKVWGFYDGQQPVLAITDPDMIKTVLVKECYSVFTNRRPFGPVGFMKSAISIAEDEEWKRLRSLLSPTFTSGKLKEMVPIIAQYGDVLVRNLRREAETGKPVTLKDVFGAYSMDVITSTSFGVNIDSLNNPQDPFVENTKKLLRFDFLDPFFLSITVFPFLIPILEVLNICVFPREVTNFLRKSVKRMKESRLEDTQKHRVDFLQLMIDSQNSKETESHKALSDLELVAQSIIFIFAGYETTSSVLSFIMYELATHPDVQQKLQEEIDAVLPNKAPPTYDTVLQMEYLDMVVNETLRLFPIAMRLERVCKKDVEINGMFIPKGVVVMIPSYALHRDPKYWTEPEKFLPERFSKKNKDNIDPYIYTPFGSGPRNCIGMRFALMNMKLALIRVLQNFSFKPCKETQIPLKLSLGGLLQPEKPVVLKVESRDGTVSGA", "assay": "In vitro clearance"}},
  "note": "“Also recorded” adds a separate entry of the source.",
  "data": [
    {"smiles": "CC(=O)[C@H]1CC[C@H]2[C@@H]3CC[C@H]4C[C@](C)(O)CC[C@]4(C)[C@H]3CC[C@]12C", "note": "[Ganaxolone, 3α-hydroxy-3β-methyl-5α-pregnan-20-one]", "values": [
      {"measurement": "solubility", "setting": "Solubility of ganaxolone; aqueous with cosolvent or surfactant or cyclodextrin, beta-sulfobutyl-cyclodextrin, 2-hydroxypropylbetacyclodextrin, read-out: concentration dissolved using water soluble beta cyclodextrins", "value": "> 1000", "unit": "µg/mL"},
      {"measurement": "solubility in water", "setting": "Solubility of ganaxolone; water", "value": "insoluble"},
      {"measurement": "area under the concentration time curve (AUC)(0-24)", "setting": "dogs", "value": 10000, "unit": "n·gh/mL"},
      {"measurement": "effect on cardiovascular parameters", "setting": "dogs", "value": "no effect"},
      {"measurement": "hepatic findings", "setting": "rats [1]", "value": "induced hepatic enzymes"},
      {"measurement": "development of treated neonatal rats", "setting": "rats or mice; neonatal rats, expected signs of sedation", "value": "did not affect development"},
      {"measurement": "fertility and early embryonic development", "setting": "rats or mice; rats", "value": "no effects on fertility and early embryonic development"},
      {"measurement": "teratogenicity", "setting": "rats or mice; rats or mice", "value": "not teratogenic"},
      {"measurement": "mutagenicity", "setting": "Mutagenicity", "value": "No potential for mutagenicity was detected"},
      {"measurement": "median decrease in 28-day seizure frequency (all seizure types) from baseline", "setting": "[2]; all-comers (n=11)", "value": 26, "unit": "%"},
      {"measurement": "seizure frequency at 6 months compared to baseline", "setting": "[2]; biomarker-negative (high Allo-S) group, p=0.25, Wilcoxon", "value": "did not improve"},
      {"measurement": "median % change seizure rate", "setting": "[2]; biomarker-negative (n=4, Allo-S >2,500 pg mL-1)", "value": 247, "unit": "%"},
      {"measurement": "median % change seizure rate", "setting": "[2]; biomarker-positive (n=7, Allo-S<2,500 pg mL-1)", "value": "−53.9", "unit": "%"},
      {"measurement": "seizure frequency at 6 months compared to baseline", "setting": "[2]; biomarker-positive group, p=0.02, Wilcoxon", "value": "significantly improved"},
      {"measurement": "median reduction in seizure frequency compared to baseline", "setting": "[2]; patients with Allo-S levels <2.5 ng mL-1 (n=7), FIG. 1", "value": 50, "unit": "%"},
      {"measurement": "Mean percentage change in major motor seizures (per 28 days)", "setting": "[3]; High tertile (n = 12)", "value": "−44.3", "unit": "%"},
      {"measurement": "Median percentage change in major motor seizures (per 28 days)", "setting": "[3]; High tertile (n = 12)", "value": "−46.0", "unit": "%"},
      {"measurement": "Mean percentage change in major motor seizures (per 28 days)", "setting": "[3]; Low tertile (n = 13)", "value": "−6.5", "unit": "%"},
      {"measurement": "Median percentage change in major motor seizures (per 28 days)", "setting": "[3]; Low tertile (n = 13)", "value": "−8.4", "unit": "%"},
      {"measurement": "Mean percentage change in major motor seizures (per 28 days)", "setting": "[3]; Median tertile (n = 13)", "value": "−30.3", "unit": "%"},
      {"measurement": "Median percentage change in major motor seizures (per 28 days)", "setting": "[3]; Median tertile (n = 13)", "value": "−39.5", "unit": "%"},
      {"measurement": "seizure reduction predicted at a plasma concentration of approximately 100 ng/mL", "setting": "[3]; back-transformation of log values, CDD participants", "value": "approximately 40%"},
      {"measurement": "plasma ganaxolone level (mean+standard deviation)", "setting": "[3]; forty-four participants, 50 mg/mL suspension titrated to 63 mg/kg/day (max 1800 mg/d) TID", "value": "103.5+79.2 ng/mL"},
      {"measurement": "EEG effect in otherwise normal rats", "setting": "rats [4]", "value": "induce burst suppression-like electroencephalogram (EEG) patterns"},
      {"measurement": "sedative/anesthetic response", "setting": "rats [4]; caused a sedative response", "value": "did not cause a full anesthetic response"},
      {"measurement": "effect of grapefruit on exposure", "setting": "[5]; healthy volunteers, adults", "value": "increased the exposure"},
      {"measurement": "ganaxolone levels with concomitant enzyme-inducing AEDs", "setting": "[5]; patients", "value": "reduced"},
      {"measurement": "sociability", "setting": "[6]", "value": "improved sociability"},
      {"measurement": "anxiety, hyperactivity and attention", "setting": "[7]", "value": "reduce anxiety, hyperactivity, and attention; also recorded: reduced anxiety and hyperactivity and improved attention"},
      {"measurement": "half-life", "setting": "[8]", "value": "approximately 20 hours"},
      {"measurement": "enzyme driving clearance", "setting": "CYP3A4", "value": "driven mainly by CYP3A4"}
    ]}
  ]
}
